Data as given in patent publication US20250027130A1, “Nucleic Acid Synthesis and Sequencing Using Tethered Nucleoside Triphosphates” (The Regents of the University of California, priority 2022, published 2025).
“Also recorded” adds a separate entry of the source.

Tests used:
[1] = system: DH10B cells co-expressing MaFRSA; experiment: In vivo incorporation at position 200 of sfGFP, MaFRSA (intact mass, GluC LC-MS/MS); assay type: cell-based, E. coli
[2] = system: MaPylRS; experiment: RNAse A/LC-HRMS assay of Ma-tRNA^Pyl acylation by MaPylRS; assay type: biochemical, Methanomethylophilus alvus; conditions: some statements also rest on intact tRNA analysis
[3] = system: MaFRSA (N166A, V168A); experiment: RNAse A/LC-HRMS assay of Ma-tRNA^Pyl acylation by MaFRSA; assay type: biochemical, Methanomethylophilus alvus; conditions: RNAse A/LC-HRMS and intact tRNA analysis
[4] = system: MaFRS2 (N166A, V168K); experiment: RNAse A/LC-HRMS assay of Ma-tRNA^Pyl acylation by MaFRS2; assay type: biochemical, Methanomethylophilus alvus; conditions: some statements also rest on intact tRNA analysis
[5] = system: MaFRS1 (N166A, V168L); experiment: RNAse A/LC-HRMS assay of Ma-tRNA^Pyl acylation by MaFRS1; assay type: biochemical, Methanomethylophilus alvus; conditions: some statements also rest on intact tRNA analysis
[6] = system: MaFRS1 (N166A, V168L); experiment: Intact tRNA mass spectrometry: acylation of Ma-tRNA^Pyl by MaFRS1; assay type: biochemical, Methanomethylophilus alvus; conditions: MaFRS1 2.5 μM, Ma-tRNA^Pyl 25 μM, 37° C., 2 h; average of 3 technical replicates
[7] = system: MaFRSA (N166A, V168A); experiment: Intact tRNA mass spectrometry: acylation of Ma-tRNA^Pyl by MaFRSA; assay type: biochemical, Methanomethylophilus alvus; conditions: for Yield of diacylated Ma-tRNA^Pyl / Yield of monoacylated Ma-tRNA^Pyl: MaFRSA 2.5 μM, Ma-tRNA^Pyl 25 μM, 37° C., 2 h, average of 3 technical replicates
[8] = system: MaFRSA; experiment: Malachite green assay to monitor adenylation by MaFRSA; assay type: biochemical, Methanomethylophilus alvus
Description: Malachite green assay to monitor adenylation. Enzymatic adenylation reactions were monitored using malachite green using a previous protocol with modifications^52. Each adenylation reaction (60 μL) contained the following components: 200 mM HEPES-K (pH 7.5), 4 mM DTT, 10 mM MgCl2, 0.2 mM ATP, 0-10 mM substrate, 4 U/mL E. coli inorganic pyrophosphatase (NEB), and 2.5 μM enzyme (MaFRS1 or MaFRSA). Adenylation reactions were incubated at 37° C. in a dry-air incubator. Aliquots (10 μL) were withdrawn after 0, 5, 10, 20, and 30 min and quenched upon addition to an equal volume of 20 mM EDTA (pH 8.0) on ice. Once all aliquots were withdrawn, 80 μL of Malachite Green Solution (Echelon Biosciences) was added to each aliquot and the mixture incubated at RT for 30 min. After shaking for 30 sec to remove bubbles, the absorbance at 620 nm was measured on a Synergy HTX plate reader (BioTek). The absorbance was then converted to phosphate concentration using a phosphate standard curve (0-100 μM) and plotted over time to determine turnover numbers.

[9] = system: MaFRS2 (N166A, V168K); experiment: Intact tRNA mass spectrometry: acylation of Ma-tRNA^Pyl by MaFRS2; assay type: biochemical, Methanomethylophilus alvus; conditions: MaFRS2 2.5 μM, Ma-tRNA^Pyl 25 μM, 37° C., 2 h; average of 3 technical replicates
[10] = samples vi-vii, DH10B, defined media lacking glutamate, 1 mM substrate

Row | SMILES | Substrate activity for MaFRSA (in words) [3] | Substrate activity for MaFRS2 (in words) [4] | Substrate activity for MaFRS1 (in words) [5] | Yield of diacylated Ma-tRNA^Pyl [6] [%] | Yield of monoacylated Ma-tRNA^Pyl [6] [%] | Yield of diacylated Ma-tRNA^Pyl [7] [%] | Yield of monoacylated Ma-tRNA^Pyl [7] [%] | Yield of diacylated Ma-tRNA^Pyl [9] [%] | Yield of monoacylated Ma-tRNA^Pyl [9] [%] | further results
1 | N[C@@H](Cc1cccc(C(F)(F)F)c1)C(=O)O [Sample 20] |  |  |  |  |  |  |  |  |  | sfGFP containing variant 20 at position 200 [1, 10]: 97.14%
2 | CC(C)(C)OC(=O)NCCCC[C@@H](N)C(=O)O [Substrate 5, N^ε-(tert-butoxycarbonyl)-D-lysine] |  |  |  |  |  |  |  |  |  | Substrate activity for MaPylRS (in words) [2]: No reactivity was detected
3 | N[C@@H](Cc1cccc(C(F)(F)F)c1)C(=O)O [Substrate 20] |  |  |  |  |  |  |  |  |  | Intact mass of expressed sfGFP variant (in words) ([1]; E. coli DH10B, 1 mM monomer, sfGFP-200TAG): mass corresponded to the presence of a single trifluoromethyl phenylalanine side chain; sfGFP containing variant 1 at position 200 [1, 10]: 0.00%; sfGFP containing variant 2 at position 200 [1, 10]: 0.00%; sfGFP containing variant 21 at position 200 [1, 10]: 0.63%; sfGFP containing variant A at position 200 [1, 10]: 0.14%; sfGFP containing variant F at position 200 [1, 10]: 0.15%; sfGFP containing variant K at position 200 [1, 10]: 0.14%; sfGFP containing variant Q at position 200 [1, 10]: 0.62%; sfGFP containing variant W at position 200 [1, 10]: 1.02%; sfGFP containing variant Y at position 200 [1, 10]: 0.15%
4 | N[C@@H](Cc1ccccc1)C(=O)O [Substrate 7, L-phenylalanine, reference compound] | low activity |  |  |  |  |  |  |  |  | 
5 | N[C@H](Cc1ccccc1)C(=O)O [Substrate 11, D-phenylalanine] |  | no reactivity was detected | no reactivity was detected |  |  |  |  |  |  | 
6 | O=C(O)C(Cc1cccc(C(F)(F)F)c1)C(=O)O [Substrate 18] | highest activity | accept; also recorded: excellent substrates | accept; also recorded: excellent substrates | 9.24 | 59.3 | 0 | 31.4 | 0 | 26.1 | Acylation product in competition of L-Phe 7 and 18 ([7]; MaFRSA incubated with equal concentration (10 mM) of L-Phe 7 and meta-CF3-2-BMA 18): Only the acylation product of 18 and Ma-tRNA^Pyl is observed; also recorded: only the malonyl product (18-tRNA^Pyl) is observed; Rate of adenylation as % of the rate observed for meta-CF3-L-Phe [8]: 36%
7 | Cc1cccc(CC(C(=O)O)C(=O)O)c1 [Substrate 17] | high activity | accept; also recorded: excellent substrates | accept; also recorded: excellent substrates | 3.64 | 49.8 | 1.54 | 9.48 | 0 | 52.0 | 
8 | CC(C)(C)OC(=O)NCCCCC(C(=O)O)C(=O)O [Substrate 16] |  |  |  |  |  |  |  |  |  | Substrate activity for MaPylRS (in words) [2]: accepts; also recorded: measurable substrate
9 | O=C(O)C(Cc1cccc(Br)c1)C(=O)O [Substrate 19] | high activity | accept; also recorded: excellent substrates | accept; also recorded: excellent substrates | 10.8 | 37.4 | 0 | 22.3 | 0 | 32.7 | 
